In paper PMC9127867, “Analysis of the β-Glucosidase Family Reveals Genes Involved in the Lignification of Stone Cells in Chinese White Pear (Pyrus bretschneideri Rehd.)” (Frontiers in Plant Science, 2022):

Molecular target: T1, GST-PbBGLU1 (Pyrus x bretschneideri, UniProt Z9UO32JHD5)
T1 construct: full-length CDS in pGEX4T-1, N-terminal GST tag kept, E. coli BL21(DE3)
T1 sequence (Z9UO32JHD5 522-1019 limits assumed): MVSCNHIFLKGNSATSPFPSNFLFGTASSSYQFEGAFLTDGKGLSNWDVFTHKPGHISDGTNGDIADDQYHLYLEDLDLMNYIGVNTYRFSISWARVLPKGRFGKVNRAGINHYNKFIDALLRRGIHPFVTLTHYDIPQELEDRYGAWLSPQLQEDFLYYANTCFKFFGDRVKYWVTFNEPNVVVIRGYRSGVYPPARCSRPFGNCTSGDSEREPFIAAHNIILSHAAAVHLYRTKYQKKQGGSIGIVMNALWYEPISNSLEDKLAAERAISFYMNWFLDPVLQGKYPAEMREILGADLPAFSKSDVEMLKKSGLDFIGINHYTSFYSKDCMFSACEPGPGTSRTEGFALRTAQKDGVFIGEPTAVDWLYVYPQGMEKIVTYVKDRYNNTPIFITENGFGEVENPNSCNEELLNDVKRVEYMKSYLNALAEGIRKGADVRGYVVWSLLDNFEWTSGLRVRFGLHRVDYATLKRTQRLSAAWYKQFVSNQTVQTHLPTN
Assay: HPLC of product, double reciprocal plot
Assay type: biochemical
Conditions: 35 °C, PBS pH 7.2–7.4, 50 mM MgSO4, 200 mM KCl, 0.1% β-mercaptoethanol
Description: HPLC of product, double reciprocal plot on GST-PbBGLU1

| SMILES | Km [µM] |
| --- | --- |
| COc1cc(/C=C/CO)ccc1O[C@@H]1O[C@H](CO)[C@@H](O)[C@H](O)[C@H]1O [coniferin] | 103 ± 3.89 |
| COc1cc(/C=C/CO)cc(OC)c1O[C@@H]1O[C@H](CO)[C@@H](O)[C@H](O)[C@H]1O [syringin] | 101 ± 6.51 |
